The values below come from ChEMBL document CHEMBL5303765, “Data for DCP probe BAY-7081” (2023).

In assay [1] the target is Bromodomain-containing protein 4 (Homo sapiens) (UniProt O60885). The assay can be described thus: BRD4 SGC Tm panel (DSF). The following applies: for ΔTm: Compound concentration 10.0 uM.
Assay [2] addresses Cyclin-dependent kinase-like 1 (Homo sapiens) (UniProt Q00532). The assay can be described thus: CDKL1 SGC Tm panel (DSF). Conditions: for ΔTm: Compound concentration 10.0 uM.
Assay [3] deals with Casein kinase II subunit alpha (Homo sapiens) (UniProt P68400). Description: CSNK2A1 SGC Tm panel (DSF). Conditions: for ΔTm: Compound concentration 10.0 uM.
Sequence of Casein kinase II subunit alpha (Homo sapiens) (P68400 whole entry, looked up): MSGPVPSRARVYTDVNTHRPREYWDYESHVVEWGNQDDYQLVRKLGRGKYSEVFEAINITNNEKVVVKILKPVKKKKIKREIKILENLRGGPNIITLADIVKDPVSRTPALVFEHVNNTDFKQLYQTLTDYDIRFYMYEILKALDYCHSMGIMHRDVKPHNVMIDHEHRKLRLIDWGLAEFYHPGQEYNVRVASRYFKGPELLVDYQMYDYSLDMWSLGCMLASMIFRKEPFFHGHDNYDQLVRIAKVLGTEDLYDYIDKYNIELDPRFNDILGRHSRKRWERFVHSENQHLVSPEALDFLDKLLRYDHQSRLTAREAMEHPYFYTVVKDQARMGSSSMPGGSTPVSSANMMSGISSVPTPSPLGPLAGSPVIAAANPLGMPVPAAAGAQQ
For assay [4], the target named is T1, Mitogen-activated protein kinase 13 (Homo sapiens) (UniProt O15264).
T1 sequence (whole entry): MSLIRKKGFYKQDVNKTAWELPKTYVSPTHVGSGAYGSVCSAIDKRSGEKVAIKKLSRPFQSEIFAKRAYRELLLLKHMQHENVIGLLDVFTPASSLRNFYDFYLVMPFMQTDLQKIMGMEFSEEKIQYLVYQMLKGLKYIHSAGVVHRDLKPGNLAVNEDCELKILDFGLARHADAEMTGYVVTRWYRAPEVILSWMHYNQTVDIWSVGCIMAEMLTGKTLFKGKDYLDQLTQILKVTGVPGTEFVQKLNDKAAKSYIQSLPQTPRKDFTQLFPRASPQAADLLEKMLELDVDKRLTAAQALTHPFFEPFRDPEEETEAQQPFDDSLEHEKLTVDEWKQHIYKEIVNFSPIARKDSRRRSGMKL
Description: MAPK13 SGC Tm panel (DSF). The following applies: for ΔTm: Compound concentration 10.0 uM.

Assay [5] addresses Serine/threonine-protein kinase 26 (Homo sapiens) (UniProt Q9P289). The assay can be described thus: MST4 SGC Tm panel (DSF). The following applies: for ΔTm: Compound concentration 10.0 uM.
Assay [6] addresses Proto-oncogene tyrosine-protein kinase Src (Homo sapiens) (UniProt P12931). Description: SRC SGC Tm panel (DSF). The following applies: for ΔTm: Compound concentration 10.0 uM.
In assay [7] the target is STE20/SPS1-related proline-alanine-rich protein kinase (Homo sapiens) (UniProt Q9UEW8). Description: STK39 SGC Tm panel (DSF). Conditions: for ΔTm: Compound concentration 10.0 uM.
The target in assay [8] is T2, Serine/threonine-protein kinase tousled-like 1 (Homo sapiens) (UniProt Q9UKI8).
T2 sequence (whole entry): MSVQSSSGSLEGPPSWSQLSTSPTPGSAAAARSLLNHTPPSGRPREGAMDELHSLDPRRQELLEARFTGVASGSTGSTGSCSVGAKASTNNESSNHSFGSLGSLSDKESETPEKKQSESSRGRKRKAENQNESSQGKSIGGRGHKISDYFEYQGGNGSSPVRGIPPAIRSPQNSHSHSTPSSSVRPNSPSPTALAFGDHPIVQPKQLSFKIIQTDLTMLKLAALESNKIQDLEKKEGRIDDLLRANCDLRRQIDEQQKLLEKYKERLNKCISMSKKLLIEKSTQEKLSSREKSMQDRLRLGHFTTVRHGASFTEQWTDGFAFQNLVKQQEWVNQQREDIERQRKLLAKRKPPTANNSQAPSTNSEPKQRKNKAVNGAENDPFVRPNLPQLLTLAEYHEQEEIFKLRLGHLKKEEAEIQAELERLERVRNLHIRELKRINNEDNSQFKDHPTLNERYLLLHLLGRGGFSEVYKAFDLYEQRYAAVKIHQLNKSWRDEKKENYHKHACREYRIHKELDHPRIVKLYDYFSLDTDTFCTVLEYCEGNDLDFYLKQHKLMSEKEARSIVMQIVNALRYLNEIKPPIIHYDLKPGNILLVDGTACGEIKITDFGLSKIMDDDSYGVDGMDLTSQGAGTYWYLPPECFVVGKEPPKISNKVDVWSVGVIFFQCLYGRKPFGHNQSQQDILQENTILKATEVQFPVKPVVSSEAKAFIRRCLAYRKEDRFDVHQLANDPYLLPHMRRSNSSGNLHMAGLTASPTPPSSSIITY
The assay can be described thus: TLK1 SGC Tm panel (DSF). Conditions: for ΔTm: Compound concentration 10.0 uM.

For assay [9], the target named is T3, Serine/threonine-protein kinase ULK3 (Homo sapiens) (UniProt Q6PHR2).
T3 sequence (whole entry): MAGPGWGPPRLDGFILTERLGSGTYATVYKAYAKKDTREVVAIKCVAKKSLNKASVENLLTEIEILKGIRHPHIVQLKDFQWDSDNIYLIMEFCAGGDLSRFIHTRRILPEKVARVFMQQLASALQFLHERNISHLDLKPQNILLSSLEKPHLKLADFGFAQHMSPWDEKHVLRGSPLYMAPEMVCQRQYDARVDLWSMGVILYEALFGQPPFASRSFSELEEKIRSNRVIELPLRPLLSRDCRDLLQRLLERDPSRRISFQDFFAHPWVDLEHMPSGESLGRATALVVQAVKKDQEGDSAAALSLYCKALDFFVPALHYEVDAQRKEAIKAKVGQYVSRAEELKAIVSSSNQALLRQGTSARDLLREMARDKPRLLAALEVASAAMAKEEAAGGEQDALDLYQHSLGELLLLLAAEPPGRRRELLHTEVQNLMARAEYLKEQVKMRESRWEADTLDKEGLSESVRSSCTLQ
The assay can be described thus: ULK3 SGC Tm panel (DSF). The following applies: for ΔTm: Compound concentration 10.0 uM.

For assay [10], the target named is Mu-type opioid receptor (Homo sapiens, UniProt P35372). The following applies: Compound concentration 10.0 uM.
Sequence of Mu-type opioid receptor (P35372 whole entry): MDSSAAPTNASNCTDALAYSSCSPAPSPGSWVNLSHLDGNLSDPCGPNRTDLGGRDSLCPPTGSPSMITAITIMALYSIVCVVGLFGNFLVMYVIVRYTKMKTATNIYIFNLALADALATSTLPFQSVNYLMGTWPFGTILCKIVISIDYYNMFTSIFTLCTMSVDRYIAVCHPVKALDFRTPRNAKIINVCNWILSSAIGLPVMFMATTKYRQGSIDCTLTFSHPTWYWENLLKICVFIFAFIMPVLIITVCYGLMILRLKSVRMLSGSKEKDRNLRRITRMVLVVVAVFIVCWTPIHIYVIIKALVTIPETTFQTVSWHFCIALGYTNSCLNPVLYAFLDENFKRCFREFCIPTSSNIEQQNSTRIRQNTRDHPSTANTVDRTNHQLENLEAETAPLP
Assay [11] concerns the target Histamine H3 receptor (Homo sapiens) (UniProt Q9Y5N1). The following applies: Compound concentration 10.0 uM.

Molecules are shown by their SMILES.

Sequence of Proto-oncogene tyrosine-protein kinase Src (Homo sapiens) (P12931 2-536 limits assumed): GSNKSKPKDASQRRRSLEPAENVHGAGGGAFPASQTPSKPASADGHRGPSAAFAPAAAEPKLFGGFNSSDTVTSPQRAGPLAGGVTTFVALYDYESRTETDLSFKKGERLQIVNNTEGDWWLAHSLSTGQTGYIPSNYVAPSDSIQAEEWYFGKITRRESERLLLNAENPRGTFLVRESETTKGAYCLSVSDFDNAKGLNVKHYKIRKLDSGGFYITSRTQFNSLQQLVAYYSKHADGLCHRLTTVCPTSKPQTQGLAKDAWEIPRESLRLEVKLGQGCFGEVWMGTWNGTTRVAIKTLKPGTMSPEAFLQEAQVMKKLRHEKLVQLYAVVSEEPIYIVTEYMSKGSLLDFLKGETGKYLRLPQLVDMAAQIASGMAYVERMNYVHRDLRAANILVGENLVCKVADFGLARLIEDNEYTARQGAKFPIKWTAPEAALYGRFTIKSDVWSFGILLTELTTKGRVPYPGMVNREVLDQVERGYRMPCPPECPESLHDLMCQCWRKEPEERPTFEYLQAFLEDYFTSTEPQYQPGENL
Sequence of Histamine H3 receptor (Homo sapiens) (Q9Y5N1 whole entry): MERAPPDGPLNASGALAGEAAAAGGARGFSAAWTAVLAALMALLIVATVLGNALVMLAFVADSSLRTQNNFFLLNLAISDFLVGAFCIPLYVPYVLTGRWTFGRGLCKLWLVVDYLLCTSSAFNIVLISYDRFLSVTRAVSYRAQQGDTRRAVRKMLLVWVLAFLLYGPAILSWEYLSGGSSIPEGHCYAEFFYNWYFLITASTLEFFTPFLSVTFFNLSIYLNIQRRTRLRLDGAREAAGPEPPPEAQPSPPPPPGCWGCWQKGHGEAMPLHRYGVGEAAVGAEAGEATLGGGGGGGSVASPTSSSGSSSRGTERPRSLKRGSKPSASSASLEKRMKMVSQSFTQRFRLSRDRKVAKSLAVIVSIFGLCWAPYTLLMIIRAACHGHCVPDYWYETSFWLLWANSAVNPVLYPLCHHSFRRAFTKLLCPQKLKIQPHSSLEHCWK
Sequence of Serine/threonine-protein kinase 26 (Homo sapiens) (Q9P289 2-416 limits assumed): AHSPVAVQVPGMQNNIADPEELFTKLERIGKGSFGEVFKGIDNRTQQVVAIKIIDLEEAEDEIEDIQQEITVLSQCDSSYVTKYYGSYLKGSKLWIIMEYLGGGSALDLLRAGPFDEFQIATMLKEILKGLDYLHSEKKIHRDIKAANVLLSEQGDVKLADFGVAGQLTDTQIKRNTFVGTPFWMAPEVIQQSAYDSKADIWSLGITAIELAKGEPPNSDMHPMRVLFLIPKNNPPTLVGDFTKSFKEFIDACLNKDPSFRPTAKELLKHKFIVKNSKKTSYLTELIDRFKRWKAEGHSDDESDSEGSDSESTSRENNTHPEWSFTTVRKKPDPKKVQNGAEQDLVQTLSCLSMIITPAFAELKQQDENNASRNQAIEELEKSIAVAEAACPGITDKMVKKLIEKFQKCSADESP
Sequence of Cyclin-dependent kinase-like 1 (Homo sapiens) (Q00532 whole entry): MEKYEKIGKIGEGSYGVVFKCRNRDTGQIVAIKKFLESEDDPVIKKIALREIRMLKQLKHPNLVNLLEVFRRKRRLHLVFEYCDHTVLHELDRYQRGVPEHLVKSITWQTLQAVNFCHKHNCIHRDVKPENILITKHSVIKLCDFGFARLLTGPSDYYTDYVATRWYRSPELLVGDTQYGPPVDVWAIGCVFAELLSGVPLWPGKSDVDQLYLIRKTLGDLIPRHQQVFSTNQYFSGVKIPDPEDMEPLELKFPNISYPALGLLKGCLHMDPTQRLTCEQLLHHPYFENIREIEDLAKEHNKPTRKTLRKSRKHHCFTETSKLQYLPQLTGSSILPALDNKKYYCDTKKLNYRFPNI

For orientation: inhibition means the change of the read-out against control, counted positive when it falls. Take `CCC[C@H]1CNCc2c1[nH]c(=O)c(C#N)c2N1CCC2(CC1)CC2`: the delta Tm Staurosporine positive control was found to be 2.04 in assay [1]; 7.07 in [2]; 4.47 in assay [3]; 8.03 in [4]; 6.5 in assay [5]; 7.39 in assay [6]. The delta Tm Staurosporine positive control is 9.01 in [7], 9.74 in assay [8] and 19.1 in assay [9]. Moreover, the ΔTm was 0.19 in assay [1]; -0.0258 in [2]; -0.228 in assay [3]; 0.098 in [4]; -1.58 in [5]; -0.143 in [6]. The ΔTm is -0.273 in assay [7], -1.34 in assay [8] and -0.0592 in [9]. Also, the inhibition in assay [10] is 26.2%; in assay [11], -0.66%.

As for `CCC[C@@H]1CNCc2c1[nH]c(=O)c(C#N)c2N1CCC2(CC1)CC2`, the delta Tm Staurosporine positive control in assay [1] was determined as 2.04; in assay [2] it was 7.07; in assay [3], 4.47; in assay [4] it was 8.03; in assay [5] it was 6.5; in [6], 7.39. For the same compound, the delta Tm Staurosporine positive control in assay [7] amounted to 9.01; in assay [8] it was 9.74; in assay [9], 19.1. The ΔTm in assay [1] was 0.857; in assay [2], -0.229; in assay [3], -0.184; in assay [4], 0.124; in [5], -1.81; in [6], -0.0953. The ΔTm in assay [7] was -0.455; in assay [8], -1.18; in [9], -0.0429. Also, the inhibition is 57.9% in assay [10] and -1.01% in assay [11].
